The text below walks through data of patent publication US9914730B2, “Azaquinazoline inhibitors of Atypical protein Kinase C” (Ignyta, Inc., priority 2012, dated 2018).

Molecules are shown by their SMILES. pIC50: −log10 of the molar value.

The target in the experiment is T1, full-length human PKCι (Homo sapiens, UniProt P41743).
T1 construct: Recombinant, full-length human PKCι expressed in Sf21 insect cells is also commercially available; purchased; host or cells: Sf21 insect cells
T1 sequence (P41743 1-596): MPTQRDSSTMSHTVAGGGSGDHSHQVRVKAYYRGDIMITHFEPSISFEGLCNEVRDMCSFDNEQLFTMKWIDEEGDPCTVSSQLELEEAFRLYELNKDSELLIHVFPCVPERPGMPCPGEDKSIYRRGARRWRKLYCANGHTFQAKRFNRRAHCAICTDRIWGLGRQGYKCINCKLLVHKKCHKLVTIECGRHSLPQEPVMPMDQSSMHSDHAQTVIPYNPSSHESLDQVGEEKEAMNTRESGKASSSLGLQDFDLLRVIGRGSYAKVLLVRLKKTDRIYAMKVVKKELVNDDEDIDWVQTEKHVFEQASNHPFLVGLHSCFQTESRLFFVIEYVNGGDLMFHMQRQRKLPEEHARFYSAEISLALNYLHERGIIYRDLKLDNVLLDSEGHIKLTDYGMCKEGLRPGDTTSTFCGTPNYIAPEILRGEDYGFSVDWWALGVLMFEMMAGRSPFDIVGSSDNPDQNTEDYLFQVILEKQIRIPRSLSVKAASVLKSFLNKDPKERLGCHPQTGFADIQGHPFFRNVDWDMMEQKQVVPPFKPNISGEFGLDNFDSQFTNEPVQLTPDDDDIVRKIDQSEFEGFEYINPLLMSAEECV
Briefly: PKCι IC50 IMAP assay, full-length PKCι at 150 μM ATP. Format: biochemical. The settings on record: read-out: IC50 in IMAP assay against full length PKCi at 150 μM ATP. In a few lines:
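IMAP fluorescence polarisation (ex 485/em 530 nm) read-out; % inhibition set from no-compound (0%) and no-enzyme (100%) controls, IC50 from dose-response curve fit. Sf21-expressed full-length enzyme ~15 pM, 100 nM FAM peptide, ATP 150 μM (5× KM^APP), 60 min at RT.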
A word on the pIC50: it is the negative decadic logarithm of the IC50, by convention in mol/L. As to `COc1cncc2nc(-c3ccnc(Nc4cccc(C(F)(F)F)c4)c3)nc(N3CCNCC3)c12` [Example 446, [4-(5-Methoxy-4-piperazin-1-yl-pyrido[3,4-d]pyrimidin-2-yl)-pyridin-2-yl]-(3-trifluoromethyl-phenyl)-amine], the pIC50 was 6.00 to 7.00.
On to `COc1cncc2nc(-c3ccnc(Nc4cccc(F)n4)c3)nc(N3CCNCC3)c12` [Example 447, (6-Fluoro-pyridin-2-yl)-[4-(5-methoxy-4-piperazin-1-yl-pyrido[3,4-d]pyrimidin-2-yl)-pyridin-2-yl]-amine], for which the pIC50 was greater than 7.00.
On to `COc1cncc2nc(-c3ccnc(Nc4cccc(C(F)(F)F)n4)c3)nc(N3CCNCC3)c12` [Example 449, [4-(5-Methoxy-4-piperazin-1-yl-pyrido[3,4-d]pyrimidin-2-yl)-pyridin-2-yl]-(6-trifluoromethyl-pyridin-2-yl)-amine], for which the pIC50 was greater than 7.00.
Regarding `COc1cncc2nc(-c3ccnc(Nc4cccnc4F)c3)nc(N3CCNCC3)c12` [Example 450, (2-Fluoro-pyridin-3-yl)-[4-(5-methoxy-4-piperazin-1-yl-pyrido[3,4-d]pyrimidin-2-yl)-pyridin-2-yl]-amine], the pIC50 was greater than 7.00.
With `COc1cncc2nc(-c3ccnc(Nc4cccc(C)c4F)c3)nc(N3CCNCC3)c12` [Example 451, (2-Fluoro-3-methyl-phenyl)-[4-(5-methoxy-4-piperazin-1-yl-pyrido[3,4-d]pyrimidin-2-yl)-pyridin-2-yl]-amine] the figure was greater than 7.00; with `COc1cncc2nc(-c3ccnc(Nc4cccc(C(F)(F)F)c4F)c3)nc(N3CCNCC3)c12` [Example 452, (2-Fluoro-3-trifluoromethyl-phenyl)-[4-(5-methoxy-4-piperazin-1-yl-pyrido[3,4-d]pyrimidin-2-yl)-pyridin-2-yl]-amine], 6.00 to 7.00; with `COc1cncc2nc(-c3ccnc(Nc4ccc(F)cc4F)c3)nc(N3CCNCC3)c12` [Example 453, (2,4-Difluoro-phenyl)-[4-(5-methoxy-4-piperazin-1-yl-pyrido[3,4-d]pyrimidin-2-yl)-pyridin-2-yl]-amine], greater than 7.00.
As for `COc1cncc2nc(-c3ccnc(Nc4ccc(F)c(F)c4F)c3)nc(N3CCNCC3)c12` [Example 454, [4-(5-Methoxy-4-piperazin-1-yl-pyrido[3,4-d]pyrimidin-2-yl)-pyridin-2-yl]-(2,3,4-trifluoro-phenyl)-amine], the pIC50 was 6.00 to 7.00.
Regarding `COc1cncc2nc(-c3ccnc(Nc4cc(F)c(F)cc4F)c3)nc(N3CCNCC3)c12` [Example 455, [4-(5-Methoxy-4-piperazin-1-yl-pyrido[3,4-d]pyrimidin-2-yl)-pyridin-2-yl]-(2,4,5-trifluoro-phenyl)-amine], the pIC50 is 6.00 to 7.00.
As for `COc1cncc2nc(-c3ccnc(Nc4ccccc4)c3)nc(NCCC(N)=O)c12` [Example 458, 3-[5-Methoxy-2-(2-phenylamino-pyridin-4-yl)-pyrido[3,4-d]pyrimidin-4-ylamino]-propionamide], the pIC50 was 5.00 to 6.00.
With `COc1cncc2nc(-c3ccnc(Nc4ccccc4)c3)nc(N3CCC(F)(F)CC3)c12` [Example 460, {4-[4-(4,4-Difluoro-piperidin-1-yl)-5-methoxy-pyrido[3,4-d]pyrimidin-2-yl]-pyridin-2-yl}-phenyl-amine], the pIC50 was 4.40 to 5.00.
Regarding `COc1cncc2nc(-c3ccnc(Nc4ccccc4)c3)nc(N3CC[C@@H](O)[C@@H](O)CC3)c12` [Example 467, (meso)-cis-1-[5-Methoxy-2-(2-phenylamino-pyridin-4-yl)-pyrido[3,4-d]pyrimidin-4-yl]-azepane-4,5-diol], the pIC50 was 5.00 to 6.00.
With `COc1cncc2nc(-c3ccnc(Nc4cccc(F)n4)c3)nc(N3CCC(O)CC3)c12` [Example 468, 1-{2-[2-(6-Fluoro-pyridin-2-ylamino)-pyridin-4-yl]-5-methoxy-pyrido[3,4-d]pyrimidin-4-yl}-piperidin-4-ol], the pIC50 was 6.00 to 7.00.
As for `COc1cccc(Nc2cc(-c3nc(N4CCC(O)CC4)c4c(OC)cncc4n3)ccn2)n1` [Example 469, 1-{5-Methoxy-2-[2-(6-methoxy-pyridin-2-ylamino)-pyridin-4-yl]-pyrido[3,4-d]pyrimidin-4-yl}-piperidin-4-ol], the figure is 5.00 to 6.00.
`COc1cncc2nc(-c3ccnc(Nc4cccc(F)n4)c3)nc(N3CC[C@H](CO)C3)c12` [Example 470, ((S)-1-{2-[2-(6-Fluoro-pyridin-2-ylamino)-pyridin-4-yl]-5-methoxy-pyrido[3,4-d]pyrimidin-4-yl}-pyrrolidin-3-yl)-methanol]: the pIC50 is 5.00 to 6.00.
As for `COc1cccc(Nc2cc(-c3nc(N4CC[C@H](CO)C4)c4c(OC)cncc4n3)ccn2)n1` [Example 471, ((S)-1-{5-Methoxy-2-[2-(6-methoxy-pyridin-2-ylamino)-pyridin-4-yl]-pyrido[3,4-d]pyrimidin-4-yl}-pyrrolidin-3-yl)-methanol], the figure is 5.00 to 6.00; as for `Clc1ccccc1Nc1cc(-c2nc(N3CCNCC3)c3c(C4CC4)cncc3n2)ccn1` [Example 477, (2-Chloro-phenyl)-[4-(5-cyclopropyl-4-piperazin-1-yl-pyrido[3,4-d]pyrimidin-2-yl)-pyridin-2-yl]-amine], greater than 7.00.
Regarding `Cc1ccncc1Nc1cc(-c2nc(N3CCNCC3)c3c(C4CC4)cncc3n2)ccn1` [Example 478, [4-(5-Cyclopropyl-4-piperazin-1-yl-pyrido[3,4-d]pyrimidin-2-yl)-pyridin-2-yl]-(4-methyl-pyridin-3-yl)-amine], the pIC50 is greater than 7.00.
As for `N#Cc1ccnc(Nc2cc(-c3nc(N4CCC(O)CC4)c4c(C5CC5)cncc4n3)ccn2)c1` [Example 482, 2-{4-[5-Cyclopropyl-4-(4-hydroxy-piperidin-1-yl)-pyrido[3,4-d]pyrimidin-2-yl]-pyridin-2-ylamino}-isonicotinonitrile], the figure is 6.00 to 7.00; as for `Fc1cccc(Nc2cc(-c3nc(N4CCNCC4)c4c(C5CC5)cncc4n3)ccn2)n1` [Example 483, [4-(5-Cyclopropyl-4-piperazin-1-yl-pyrido[3,4-d]pyrimidin-2-yl)-pyridin-2-yl]-(6-fluoro-pyridin-2-yl)-amine], greater than 7.00; as for `Cc1ccccc1Nc1cc(-c2nc(N3CCNCC3)c3c(C4CC4)cncc3n2)ccn1` [Example 486, [4-(5-Cyclopropyl-4-piperazin-1-yl-pyrido[3,4-d]pyrimidin-2-yl)-pyridin-2-yl]-o-tolyl-amine], greater than 7.00.
With `COc1cncc2nc(-c3ccnc(Nc4cnn(-c5ccccc5)c4)c3)nc(N3CCNCC3)c12` [Example 489, 4-(5-Methoxy-4-piperazin-1-yl-pyrido[3,4-d]pyrimidin-2-yl)-N-(1-phenylpyrazol-4-yl)pyridin-2-amine] the figure was greater than 7.00; with `COc1cncc2nc(-c3ccnc(Nc4ccc5c(C)n(C)nc5c4)c3)nc(N3CCNCC3)c12` [Example 490, (2,3-Dimethyl-2H-indazol-6-yl)-[4-(5-methoxy-4-piperazin-1-yl-pyrido[3,4-d]pyrimidin-2-yl)-pyridin-2-yl]-amine], greater than 7.00; with `COc1cncc2nc(-c3ccnc(Nc4cnn(-c5ccccc5F)c4)c3)nc(N3CCNCC3)c12` [Example 491, [1-(2-Fluoro-phenyl)-1H-pyrazol-4-yl]-[4-(5-methoxy-4-piperazin-1-yl-pyrido[3,4-d]pyrimidin-2-yl)-pyridin-2-yl]-amine], greater than 7.00.
With `c1ccc(-n2cc(Nc3cc(-c4nc(N5CCNCC5)c5c(C6CC6)cncc5n4)ccn3)cn2)cc1` [Example 492, [4-(5-cyclopropyl-4-piperazin-1-yl-pyrido[3,4-d]pyrimidin-2-yl)-pyridin-2-yl]-(1-phenyl-1H-pyrazol-4-yl)-amine] the figure was greater than 7.00.
As to `Cc1c2ccc(Nc3cc(-c4nc(N5CCNCC5)c5c(C6CC6)cncc5n4)ccn3)cc2nn1C` [Example 493, [4-(5-Cyclopropyl-4-piperazin-1-yl-pyrido[3,4-d]pyrimidin-2-yl)-pyridin-2-yl]-(2,3-dimethyl-2H-indazol-6-yl)-amine], the pIC50 is greater than 7.00.
Consider `c1ccc(Nc2cc(-c3nc(N4CCNCC4)c4ccncc4n3)ccn2)cc1` [Example 494, Phenyl-[4-(4-piperazin-1-yl-pyrido[3,4-d]pyrimidin-2-yl)-pyridin-2-yl]-amine], for which the negative logarithm of the IC50 (pIC50) was 6.00 to 7.00.
`Fc1ncccc1Nc1cc(-c2nc(N3CCNCC3)c3c(C4CC4)cncc3n2)ccn1` [Example 495, [4-(5-cyclopropyl-4-piperazin-1-yl-pyrido[3,4-d]pyrimidin-2-yl)-pyridin-2-yl]-(2-fluoro-pyridin-3-yl)-amine]: the pIC50 is greater than 7.00.
Consider `COc1cncc2nc(-c3ccnc(Nc4cc(C)on4)c3)nc(N3CCNCC3)c12` [Example 496, [4-(5-Methoxy-4-piperazin-1-yl-pyrido[3,4-d]pyrimidin-2-yl)-pyridin-2-yl]-(5-methyl-isoxazol-3-yl)-amine], for which the pIC50 was 4.40 to 5.00.
Turning to `Oc1nc(-c2ccnc(Nc3cccc(N4CCNCC4)c3)c2)nc2cnccc12` [Example 497, 2-[2-(3-piperazin-1-yl-phenylamino)-pyridin-4-yl]-pyrido[3,4-d]pyrimidin-4-ol], the pIC50 was 4.40 to 5.00.
